Assay results from US20070244110A1, “Treatment of prostate cancer, melanoma or hepatic cancer” (ZENYAKU KOGYO KABUSHIKI KAISHA, priority 2006, published 2007).

Tests used:
Hepatoma HepG2 cells = test: In vitro anti-tumor experiment, growth inhibition of HepG2 cells; type: cell-based; conditions: HepG2, 72 hours incubation
Protocol: (§1) Hepatoma HepG2 cells were cultured in a MEM culture medium (containing 10% fetal bovine serum, 25 mM HEPES and 0.1 mg/ml kanamycin) under conditions of 5% carbon dioxide at 37° C. HepG2 cells were harvested as single free cells by a tripsin/EDTA treatment in the logarithmic growth phase, and a cell suspension solution consisted of 2×10^4 cells per ml was prepared with MEM culture medium (containing 10% fetal bovine serum, 25 mM HEPES and 0.1 mg/ml kanamycin). The test compound was dissolved in DMSO, then diluted with RPMI1640 culture medium (containing 10% fetal bovine serum, 25 mM HEPES, 0.1 mg/ml kanamycin), and adjusted to a concentration of 2.0×10^−9 to 2.0×10^−3 M.
(§2) 0.1 ml of the cell suspension solution was put in each well of a 96-well plate, then cultured for 24 hours to make the cells adhere to the microplates, and 0.1 ml of the test compound was added in each well and incubated for 72 hours under conditions of 5% carbon dioxide at 37° C. The 50% growth inhibition concentration (GI50 value μM) was computed from the growth inhibition rates at various test sample concentrations, and the results are shown in Table 1.

[1] = tested on: PC-3 prostate cancer cells; test: In vitro anti-tumor experiment, growth inhibition of PC-3 cells; type: cell-based; conditions: PC-3, 72 hours incubation
Protocol: as §1, §2
(§3) When using cells other than HepG2 cells, the following culture media were used instead of the MEM culture medium, and the following single cell suspensions were prepared with the following media:
PC-3 prostate cancer cells:
F12K culture medium containing 10% fetal bovine serum, 2×10^4 cell suspension

B16F10 melanoma cells = test: In vitro anti-tumor experiment, growth inhibition of B16F10 cells; type: cell-based; conditions: B16F10, 72 hours incubation
Protocol: as §1, §2, §3
RPMI1640 culture medium containing 10% fetal bovine serum, 1×10^4 cell suspension

[2] = tested on: PC-3 prostate cancer cells; test: In vivo anti-tumor experiment, PC-3 human tumor xenograft; design: species or system BALB/c nude mice; conditions: 6 days a week for two weeks, day 14
Protocol: (§4) Human tumor xenografts were generated with PC-3 prostate cancer cells, and WiDr colon cancer cells, and were grown as subcutaneous tumors in mutant BALB/c nude mice. Each nude mouse was subcutaneously inoculated with a tumor fragment of 2 mm by 2 mm by 2 mm. When tumors reached a volume of 100-300 mm^3, animals were divided randomly into test groups of five mice (day 0). The samples were orally administered at a dosage of 100, 200 or 400 mg/kg once daily, 6 days a week for two weeks. The length (L) and width (W) of the subcutaneous tumor mass were measured by calipers in live mice, and the tumor volume (TV) was calculated as: TV=(L×W^2)/2. The tumor volume at day n was expressed as relative tumor volume (RTV), according to the formula RTV=TVn/TV0, where TVn is the tumor volume at day n, and TV0 is the tumor volume at day 0. T/C% on day 14 was determined by calculating RTV as: T/C%=100×(mean RTV of treated group)/(mean RTV of control group). The specimens in which T/C (%) was 50% or less and having a significant difference at P value 1% on one side in a Mann-Whitney U test were evaluated as effective (+).

WiDr colon cancer cells = test: In vivo anti-tumor experiment, WiDr human tumor xenograft (reference); design: species or system BALB/c nude mice; conditions: 6 days a week for two weeks, day 14
Protocol: as §4

SMILES	GI50 (Hepatoma HepG2 cells; Homo sapiens)	GI50 ([1]; Homo sapiens)	GI50 (B16F10 melanoma cells; Mus musculus, B16-F10)	melting point	Evaluation effective (+), Prostate Cancer ([2]; 200 mg/kg orally once daily)	T/C (%) Prostate Cancer ([2]; 200 mg/kg orally once daily)	T/C (%) Colon Cancer (reference) (WiDr colon cancer cells; 200 mg/kg orally once daily)	further results
CC1(C)CN(c2nc(N3CCOCC3)nc(-n3c(C(F)F)nc4ccccc43)n2)CCO1 [Compound 2, 2-(2-difluoromethylbenzimidazol-1-yl)-4-(2,2-dimethylmorpholino)-6-morpholino-1,3,5-triazine]	1500 nM	740 nM	950 nM	176 to 178 °C	–	–	–	–
COc1cccc2c1nc(C(F)F)n2-c1nc(N2CCOCC2)nc(N2CCOCC2)n1 [Compound 4, 2-(2-difluoromethyl-4-methoxybenzimidazol-1-yl)-4,6-dimorpholino-1,3,5-triazine]	340 nM	190 nM	250 nM	–	–	–	–	–
C[C@@H]1CO[C@@H](C)CN1c1nc(N2CCOCC2)nc(-n2c(C(F)F)nc3ccccc32)n1 (relative stereo) [Compound 3, 2-(2-difluoromethylbenzimidazol-1-yl)-4-(trans-2,5-dimethylmorpholino)-6-morpholino-1,3,5-triazine]	1120 nM	490 nM	1140 nM	166 to 169 °C	–	–	–	–
FC(F)c1nc2ccccc2n1-c1nc(N2CCOCC2)nc(N2CCOCC2)n1 [Compound 1, 2-(2-difluoromethylbenzimidazol-1-yl)-4,6-dimorpholino-1,3,5-triazine]	1150 nM	240 nM	310 nM	–	–	–	–	Evaluation effective (+), Prostate Cancer ([2]; 400 mg/kg orally once daily): + (T/C (%) was 50% or less and having a significant difference at P value 1% on one side in a Mann-Whitney U test were evaluated as effective (+)); T/C (%) Prostate Cancer ([2]; 400 mg/kg orally once daily): 24.8%; Evaluation effective (+), Colon Cancer (reference) (WiDr colon cancer cells; 400 mg/kg orally once daily): + (T/C (%) was 50% or less and having a significant difference at P value 1% on one side in a Mann-Whitney U test were evaluated as effective (+)); T/C (%) Colon Cancer (reference) (WiDr colon cancer cells; 400 mg/kg orally once daily): 33.2%
CC1(C)COCCN1c1cc(N2CCOCC2)nc(-n2c(C(F)F)nc3c(O)cccc32)n1 [Compound 10, 2-(2-difluoromethyl-4-hydroxybenzimidazol-1-yl)-4-(3,3-dimethylmoropholino)-6-morpholinopyrimidine]	–	–	–	–	+ (T/C (%) was 50% or less and having a significant difference at P value 1% on one side in a Mann-Whitney U test were evaluated as effective (+))	38.1%	46.2%	GI50 (Hepatoma HepG2 cells): 90 nM; GI50 [1]: 20 nM; GI50 (B16F10 melanoma cells): 42 nM; Evaluation effective (+), Prostate Cancer ([2]; 400 mg/kg orally once daily): + (T/C (%) was 50% or less and having a significant difference at P value 1% on one side in a Mann-Whitney U test were evaluated as effective (+)); T/C (%) Prostate Cancer ([2]; 400 mg/kg orally once daily): 20.8%; Evaluation effective (+), Colon Cancer (reference) (WiDr colon cancer cells; 200 mg/kg orally once daily): + (T/C (%) was 50% or less and having a significant difference at P value 1% on one side in a Mann-Whitney U test were evaluated as effective (+)); T/C (%) Colon Cancer (reference) (WiDr colon cancer cells; 400 mg/kg orally once daily): 63.1%
COc1cccc2c1nc(C(F)F)n2-c1nc(N2CCOCC2)cc(N2C[C@@H](C)O[C@@H](C)C2)n1 [Compound 6, 2-(2-difluoromethyl-4-methoxybenzimidazol-1-yl)-4-(cis-2,6-dimethylmorpholino)-6-moropholinopyrimidine]	–	–	–	–	+ (T/C (%) was 50% or less and having a significant difference at P value 1% on one side in a Mann-Whitney U test were evaluated as effective (+))	16.2%	29.5%	GI50 (Hepatoma HepG2 cells): 890 nM; GI50 [1]: 540 nM; GI50 (B16F10 melanoma cells): 1210 nM; Evaluation effective (+), Prostate Cancer ([2]; 100 mg/kg orally once daily): + (T/C (%) was 50% or less and having a significant difference at P value 1% on one side in a Mann-Whitney U test were evaluated as effective (+)); T/C (%) Prostate Cancer ([2]; 100 mg/kg orally once daily): 32.3%; Evaluation effective (+), Colon Cancer (reference) (WiDr colon cancer cells; 100 mg/kg orally once daily): + (T/C (%) was 50% or less and having a significant difference at P value 1% on one side in a Mann-Whitney U test were evaluated as effective (+)); T/C (%) Colon Cancer (reference) (WiDr colon cancer cells; 100 mg/kg orally once daily): 24.8%; Evaluation effective (+), Colon Cancer (reference) (WiDr colon cancer cells; 200 mg/kg orally once daily): + (T/C (%) was 50% or less and having a significant difference at P value 1% on one side in a Mann-Whitney U test were evaluated as effective (+))
COC(=O)Oc1cccc2c1nc(C(F)F)n2-c1nc(N2CCOCC2)cc(N2CCOC(C)(C)C2)n1 [Compound 14, 2-(2-difluoromethyl-4-methoxycarbonyloxybenzimidazol-1-yl)-4-(2,2-dimethyl-moropholino)-6-morpholinopyrimidine]	–	–	–	–	+ (T/C (%) was 50% or less and having a significant difference at P value 1% on one side in a Mann-Whitney U test were evaluated as effective (+))	47.3%	–	–
CC(=O)Oc1cccc2c1nc(C(F)F)n2-c1nc(N2CCOCC2)cc(N2C[C@@H](C)O[C@@H](C)C2)n1 [Compound 13, 2-(2-difluoromethyl-4-acetoxybenzimidazol-1-yl)-4-(cis-2,6-dimethylmoropholino)-6-morpholinopyrimidine]	–	–	–	–	–	65.4%	–	–
CCOC(=O)Oc1cccc2c1nc(C(F)F)n2-c1nc(N2CCOCC2)cc(N2C[C@@H](C)O[C@@H](C)C2)n1 [Compound 15, 2-(4-ethoxycarbonyloxy-2-difluoromethylbenzimidazol-1-yl)-4-(cis-2,6-dimethyl-moropholino)-6-morpholinopyrimidine]	–	–	–	–	+ (T/C (%) was 50% or less and having a significant difference at P value 1% on one side in a Mann-Whitney U test were evaluated as effective (+))	47.5%	–	–

More lines, main results first:

GI50 (Hepatoma HepG2 cells; Homo sapiens)	GI50 ([1]; Homo sapiens)	GI50 (B16F10 melanoma cells; Mus musculus, B16-F10)	melting point	SMILES	Evaluation effective (+), Prostate Cancer ([2]; 200 mg/kg orally once daily)	T/C (%) Prostate Cancer ([2]; 200 mg/kg orally once daily)	T/C (%) Colon Cancer (reference) (WiDr colon cancer cells; 200 mg/kg orally once daily)	further results
–	–	–	160 to 162 °C	COc1cccc2c1nc(C(F)F)n2-c1nc(N2CCOCC2)cc(N2CCOC(C)(C)C2)n1 [Compound 5, 2-(2-difluoromethyl-4-methoxybenzimidazol-1-yl)-4-(2,2-dimethylmorpholino)-6-morpholinopyrimidine]	+ (T/C (%) was 50% or less and having a significant difference at P value 1% on one side in a Mann-Whitney U test were evaluated as effective (+))	39.1%	–	Evaluation effective (+), Colon Cancer (reference) (WiDr colon cancer cells; 100 mg/kg orally once daily): + (T/C (%) was 50% or less and having a significant difference at P value 1% on one side in a Mann-Whitney U test were evaluated as effective (+))
–	–	–	214 to 215 °C	C[C@@H]1CN(c2nc(N3CCOCC3)nc(-n3c(C(F)F)nc4c(O)cccc43)n2)C[C@H](C)O1 [Compound 11, 2-(2-difluoromethyl-4-hydroxybenzimidazol-1-yl)-4-(cis-2,6-dimethylmorpholino)-6-morpholino-1,3,5-triazine]	–	66.5%	85.4%	Evaluation effective (+), Prostate Cancer ([2]; 400 mg/kg orally once daily): + (T/C (%) was 50% or less and having a significant difference at P value 1% on one side in a Mann-Whitney U test were evaluated as effective (+)); T/C (%) Prostate Cancer ([2]; 400 mg/kg orally once daily): 44.3%; T/C (%) Colon Cancer (reference) (WiDr colon cancer cells; 400 mg/kg orally once daily): 83.5%
150 nM	20 nM	63 nM	–	OCC1CCCN1c1nc(N2CCOCC2)nc(-n2c(C(F)F)nc3c(O)cccc32)n1 (stereo not shown) [Compound 9, 2-(2-difluoromethyl-4-hydroxybenzimidazol-1-yl)-4-(2-hydroxymethylpyrrolidin-1-yl)-6-morpholino-1,3,5-triazine]	+ (T/C (%) was 50% or less and having a significant difference at P value 1% on one side in a Mann-Whitney U test were evaluated as effective (+))	31.8%	49.6%	Evaluation effective (+), Colon Cancer (reference) (WiDr colon cancer cells; 200 mg/kg orally once daily): + (T/C (%) was 50% or less and having a significant difference at P value 1% on one side in a Mann-Whitney U test were evaluated as effective (+))
120 nM	10 nM	18 nM	–	Oc1cccc2c1nc(C(F)F)n2-c1nc(N2CCOCC2)nc(N2CCOCC2)n1 [Compound 8, 2-(2-difluoromethyl-4-hydroxybenzimidazol-1-yl)-4,6-dimorpholino-1,3,5-triazine]	–	–	–	–
